Source: ChEMBL document CHEMBL1144187, “Pharmacophore modeling and virtual screening for designing potential PLK1 inhibitors” (Bioorg Med Chem Lett, 2008)

biological target: Serine/threonine-protein kinase PLK1 (Homo sapiens, UniProt P53350)
Sequence (P53350 whole entry): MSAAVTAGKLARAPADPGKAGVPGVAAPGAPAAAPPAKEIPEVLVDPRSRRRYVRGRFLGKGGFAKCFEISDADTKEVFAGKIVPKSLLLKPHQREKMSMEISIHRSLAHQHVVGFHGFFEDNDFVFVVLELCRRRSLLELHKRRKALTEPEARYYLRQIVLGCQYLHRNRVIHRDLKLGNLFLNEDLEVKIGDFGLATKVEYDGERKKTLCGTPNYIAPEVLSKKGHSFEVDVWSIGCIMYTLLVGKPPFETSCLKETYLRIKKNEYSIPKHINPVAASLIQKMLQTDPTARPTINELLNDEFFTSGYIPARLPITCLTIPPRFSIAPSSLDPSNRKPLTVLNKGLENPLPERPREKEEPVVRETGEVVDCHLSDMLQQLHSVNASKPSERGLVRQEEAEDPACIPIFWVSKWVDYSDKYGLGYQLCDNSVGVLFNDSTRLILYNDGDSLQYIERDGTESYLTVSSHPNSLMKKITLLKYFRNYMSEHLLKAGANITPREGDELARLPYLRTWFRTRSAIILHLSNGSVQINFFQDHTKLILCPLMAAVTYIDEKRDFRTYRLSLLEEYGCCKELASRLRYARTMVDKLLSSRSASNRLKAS

Row | IC50 [µM] | SMILES
1 | 1.6 | CCCN(CC1CC1)c1nc(NCc2ccc3c(c2)OCO3)ncc1C#N
2 | 0.16 | CCOC(=O)/C(C#N)=c1\s/c(=C/Nc2ccccc2F)c(=O)n1CC
3 | 1.04 | c1csc(CCNc2ncc(-c3nnn[nH]3)c(Nc3ccc4c(c3)OCCO4)n2)c1
4 | 0.33 | CC(=O)N(C)c1cccc(Nc2nc(NCCc3cccs3)ncc2-c2nn[nH]n2)c1
5 | 1.6 | CC(Nc1ncc(C#N)c(OCC2CCCCO2)n1)c1ccccc1 (configuration not stated)
6 | 2 | O=C1C(C2=C3C(=Nc4ccccc43)/C(=C\c3ccc(O)cc3)C2=O)=C2C(=Nc3ccccc32)/C1=C\c1ccc(O)cc1
7 | 0.071 | C#CNC(=O)/C(C#N)=c1\s/c(=C/Nc2ccc(OCCN(C)C)cc2)c(=O)n1CC
8 | 0.074 | CCn1c(=O)/c(=C\Nc2ccc(OCCN(C)C)cc2)s/c1=C(/C#N)C(=O)NCC(F)F
9 | 0.53 | CN1CCN(c2ccc(C(=O)Nc3[nH]nc4c3CN(C(=O)Cc3cccs3)C4)cc2)CC1
10 | 0.5 | CCOC(=O)/C(C#N)=c1\s/c(=C/Nc2ccc(NC(=O)COC)cc2)c(=O)n1CC

Row | SMILES | IC50 [µM]
11 | FC(F)(F)c1ccc(Nc2nc(NCc3cccnc3)ncc2-c2nn[nH]n2)cc1 | 0.49
12 | CC(C)(C)c1ccc(Nc2nc(NCc3cccnc3)ncc2-c2nn[nH]n2)cc1 | 0.96
13 | CCCN(CC1CC1)c1nc(NC(C)c2ccccc2)ncc1C#N (configuration not stated) | 0.55
14 | C=CCOC(=O)/C(C#N)=C1\S[C@@H](CNc2ccc(NC(=O)NCCN3CCCC3)cc2)C(=O)N1CC | 0.023
15 | CC(Nc1ncc(C#N)c(N2CCc3ccccc3C2)n1)c1ccccc1 (configuration not stated) | 0.75
16 | N[C@H](COc1cncc(-c2cc3ccncc3s2)c1)Cc1c[nH]c2ccccc12 | 10
17 | O=c1c(O)c(-c2ccc(O)c(O)c2)oc2cc(O)cc(O)c12 [QUERCETIN] | 64
